Test results as given in patent US9169254B2, “Spiroimidazolone derivative” (Chugai Seiyaku Kabushiki Kaisha, priority 2009, dated 2015).

Each molecule was assayed against T1, human PTH1 receptor (Homo sapiens, UniProt Q03431) (assay: In vitro cAMP signal activity in HKRK-B7 cells (LLC-PK1 cells overexpressing the human PTH1 receptor)). Details: HKRK-B7 cells; compound at 1×10^−3 M; cAMP produced as percentage of that produced by hPTH(1-34) at 100 nM.
T1 sequence (Q03431 27-593): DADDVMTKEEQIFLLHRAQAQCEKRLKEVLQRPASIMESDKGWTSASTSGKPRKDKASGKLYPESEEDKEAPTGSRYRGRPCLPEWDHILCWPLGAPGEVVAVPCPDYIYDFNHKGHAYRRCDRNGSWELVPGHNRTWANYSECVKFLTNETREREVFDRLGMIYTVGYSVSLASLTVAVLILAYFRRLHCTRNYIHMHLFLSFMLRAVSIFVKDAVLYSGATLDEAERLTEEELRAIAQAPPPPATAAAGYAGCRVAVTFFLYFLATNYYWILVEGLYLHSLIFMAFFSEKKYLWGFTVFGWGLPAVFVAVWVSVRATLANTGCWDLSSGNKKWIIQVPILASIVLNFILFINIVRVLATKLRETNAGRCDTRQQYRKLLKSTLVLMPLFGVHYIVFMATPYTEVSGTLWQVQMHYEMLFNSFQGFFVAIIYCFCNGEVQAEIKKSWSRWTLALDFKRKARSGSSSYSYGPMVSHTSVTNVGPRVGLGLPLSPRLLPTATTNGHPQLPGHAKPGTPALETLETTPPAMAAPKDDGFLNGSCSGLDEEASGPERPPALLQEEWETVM
Type: cell-based

Row | Compound | cAMP production activity (%)
1 | Cc1cc(C(=O)N(C)C)ccc1CCS(=O)(=O)N1CCC2(CC1)N=C(c1ccc(C(F)(F)F)cc1C(F)(F)F)NC2=O [Compound 100, 4-{2-[2-(2,4-bis-trifluoromethyl-phenyl)-4-oxo-1,3,8-triaza-spiro[4.5]dec-1-ene-8-sulfonyl]-ethyl}-3,N,N-trimethyl-benzamide] | 61%
2 | Cc1cc(C(=O)N(C)C)ccc1CCS(=O)(=O)N1CCC2(CC1)N=C(CCc1ccccc1)NC2=O [Compound 101, 3,N,N-trimethyl-4-[2-(4-oxo-2-phenethyl-1,3,8-triaza-spiro[4.5]dec-1-ene-8-sulfonyl)-ethyl]-benzamide] | 49%
3 | Cc1nc(C)c(C2=NC3(CCN(S(=O)(=O)CCc4ccc(C(=O)N(C)C)cc4C)CC3)C(=O)N2)s1 [Compound 102, 4-{2-[2-(2,4-dimethyl-thiazol-5-yl)-4-oxo-1,3,8-triaza-spiro[4.5]dec-1-ene-8-sulfonyl]-ethyl}-3,N,N-trimethyl-benzamide] | 23%
4 | Cc1cc(C(=O)N(C)C)ccc1CCS(=O)(=O)N1CCC2(CC1)N=C(CC1CCCCC1)NC2=O [Compound 103, 4-[2-(2-cyclohexylmethyl-4-oxo-1,3,8-triaza-spiro[4.5]dec-1-ene-8-sulfonyl)-ethyl]-3,N,N-trimethyl-benzamide] | 80%
5 | Cc1cc(C(=O)N(C)C)ccc1CCS(=O)(=O)N1CCC2(CC1)N=C(C1CCC(C(F)(F)F)CC1)NC2=O (stereo not drawn) [Compound 104, 3,N,N-trimethyl-4-{2-[4-oxo-2-(4-trifluoromethyl-cyclohexyl)-1,3,8-triaza-spiro[4.5]dec-1-ene-8-sulfonyl]-ethyl}-benzamide] | 79%
6 | Cc1cc(C(=O)N(C)C)ccc1CCS(=O)(=O)N1CCC2(CC1)N=C(c1ccccc1OC(F)(F)F)NC2=O [Compound 105, 3,N,N-trimethyl-4-{2-[4-oxo-2-(2-trifluoromethoxy-phenyl)-1,3,8-triaza-spiro[4.5]dec-1-ene-8-sulfonyl]-ethyl}-benzamide] | 78%
7 | Cc1cc(C(=O)N(C)C)ccc1CCS(=O)(=O)N1CCC2(CC1)N=C(c1ccc(OC(F)(F)F)cc1)NC2=O [Compound 106, 3,N,N-trimethyl-4-{2-[4-oxo-2-(4-trifluoromethoxy-phenyl)-1,3,8-triaza-spiro[4.5]dec-1-ene-8-sulfonyl]-ethyl}-benzamide] | 94%
8 | Cc1cc(C(=O)N(C)C)ccc1CCS(=O)(=O)N1CCC2(CC1)N=C(CCC1CCCCC1)NC2=O [Compound 108, 4-{2-[2-(2-cyclohexyl-ethyl)-4-oxo-1,3,8-triaza-spiro[4.5]dec-1-ene-8-sulfonyl]-ethyl}-3,N,N-trimethyl-benzamide] | 62%
9 | Cc1cc(C(=O)N(C)C)ccc1CCS(=O)(=O)N1CCC2(CC1)N=C(c1cc(C(F)(F)F)ccc1C)NC2=O [Compound 112, 3,N,N-trimethyl-4-{2-[2-(2-methyl-5-trifluoromethyl-phenyl)-4-oxo-1,3,8-triaza-spiro[4.5]dec-1-ene-8-sulfonyl]-ethyl}-benzamide] | 77%
10 | Cc1cc(C(=O)N(C)C)ccc1CCS(=O)(=O)N1CCC2(CC1)N=C(c1cc(F)cc(C(F)(F)F)c1)NC2=O [Compound 115, 4-{2-[2-(3-fluoro-5-trifluoromethyl-phenyl)-4-oxo-1,3,8-triaza-spiro[4.5]dec-1-ene-8-sulfonyl]-ethyl}-3,N,N-trimethyl-benzamide] | 81%
11 | Cc1cc(C(=O)N(C)C)ccc1CCS(=O)(=O)N1CCC2(CC1)N=C(c1cccc(C(F)(F)F)c1F)NC2=O [Compound 116, 4-{2-[2-(2-fluoro-3-trifluoromethyl-phenyl)-4-oxo-1,3,8-triaza-spiro[4.5]dec-1-ene-8-sulfonyl]-ethyl}-3,N,N-trimethyl-benzamide] | 94%
12 | Cc1cnc(C2=NC3(CCN(S(=O)(=O)CCc4ccc(C(=O)N(C)C)cc4C)CC3)C(=O)N2)cn1 [Compound 120, 3,N,N-trimethyl-4-{2-[2-(5-methyl-pyrazin-2-yl)-4-oxo-1,3,8-triaza-spiro[4.5]dec-1-ene-8-sulfonyl]-ethyl}-benzamide] | 3.1%
13 | Cc1cc(C(=O)N(C)C)ccc1CCS(=O)(=O)N1CCC2(CC1)N=C(c1cscn1)NC2=O [Compound 121, 3,N,N-trimethyl-4-[2-(4-oxo-2-thiazol-4-yl-1,3,8-triaza-spiro[4.5]dec-1-ene-8-sulfonyl)-ethyl]-benzamide] | 5.8%
14 | Cc1cc(C(=O)N(C)C)ccc1CCS(=O)(=O)N1CCC2(CC1)N=C(c1nccn1C)NC2=O [Compound 122, 3,N,N-trimethyl-4-{2-[2-(1-methyl-1H-imidazol-2-yl)-4-oxo-1,3,8-triaza-spiro[4.5]dec-1-ene-8-sulfonyl]-ethyl}-benzamide] | 3.0%
15 | Cc1cc(C(=O)N(C)C)ccc1CCS(=O)(=O)N1CCC2(CC1)N=C(C1CCOCC1)NC2=O [Compound 123, 3,N,N-trimethyl-4-{2-[4-oxo-2-(tetrahydro-pyran-4-yl)-1,3,8-triaza-spiro[4.5]dec-1-ene-8-sulfonyl]-ethyl}-benzamide] | 23%
16 | Cc1cc(C(=O)N(C)C)ccc1CCS(=O)(=O)N1CCC2(CC1)N=C(COc1ccc(Cl)cc1)NC2=O [Compound 124, 4-{2-[2-(4-chloro-phenoxymethyl)-4-oxo-1,3,8-triaza-spiro[4.5]dec-1-ene-8-sulfonyl]-ethyl}-3,N,N-trimethyl-benzamide] | 64%
17 | Cc1cc(C(=O)N(C)C)ccc1CCS(=O)(=O)N1CCC2(CC1)N=C(COc1ccc(F)cc1)NC2=O [Compound 125, 4-{2-[2-(4-fluoro-phenoxymethyl)-4-oxo-1,3,8-triaza-spiro[4.5]dec-1-ene-8-sulfonyl]-ethyl}-3,N,N-trimethyl-benzamide] | 62%

Now from value to molecule:

Row | cAMP production activity (%) | Compound
18 | 110% | Cc1cc(C(=O)N(C)C)ccc1CCS(=O)(=O)N1CCC2(CC1)N=C(c1ccc(F)c(C(F)(F)F)c1)NC2=O [Compound 107, 4-{2-[2-(4-fluoro-3-trifluoromethyl-phenyl)-4-oxo-1,3,8-triaza-spiro[4.5]dec-1-ene-8-sulfonyl]-ethyl}-3,N,N-trimethyl-benzamide]
19 | 62% | Cc1cc(C(=O)N(C)C)ccc1CCS(=O)(=O)N1CCC2(CC1)N=C(c1cccc(F)c1)NC2=O [Compound 109, 4-{2-[2-(3-fluoro-phenyl)-4-oxo-1,3,8-triaza-spiro[4.5]dec-1-ene-8-sulfonyl]-ethyl}-3,N,N-trimethyl-benzamide]
20 | 25% | Cc1cc(C(=O)N(C)C)ccc1CCS(=O)(=O)N1CCC2(CC1)N=C(c1cccc(S(C)(=O)=O)c1)NC2=O [Compound 110, 4-{2-[2-(3-methanesulfonyl-phenyl)-4-oxo-1,3,8-triaza-spiro[4.5]dec-1-ene-8-sulfonyl]-ethyl}-3,N,N-trimethyl-benzamide]
21 | 93% | Cc1cc(C(=O)N(C)C)ccc1CCS(=O)(=O)N1CCC2(CC1)N=C(c1cccc(C(F)(F)F)c1C)NC2=O [Compound 111, 3,N,N-trimethyl-4-{2-[2-(2-methyl-3-trifluoromethyl-phenyl)-4-oxo-1,3,8-triaza-spiro[4.5]dec-1-ene-8-sulfonyl]-ethyl}-benzamide]
22 | 111% | Cc1cc(C(=O)N(C)C)ccc1CCS(=O)(=O)N1CCC2(CC1)N=C(c1cccc(C)c1C)NC2=O [Compound 113, 4-{2-[2-(2,3-dimethyl-phenyl)-4-oxo-1,3,8-triaza-spiro[4.5]dec-1-ene-8-sulfonyl]-ethyl}-3,N,N-trimethyl-benzamide]
23 | 105% | Cc1cc(C(=O)N(C)C)ccc1CCS(=O)(=O)N1CCC2(CC1)N=C(c1cccc(F)c1C)NC2=O [Compound 114, 4-{2-[2-(3-fluoro-2-methyl-phenyl)-4-oxo-1,3,8-triaza-spiro[4.5]dec-1-ene-8-sulfonyl]-ethyl}-3,N,N-trimethyl-benzamide]
24 | 61% | Cc1cc(C2=NC3(CCN(S(=O)(=O)CCc4ccc(C(=O)N(C)C)cc4C)CC3)C(=O)N2)ccc1F [Compound 117, 4-{2-[2-(4-fluoro-3-methyl-phenyl)-4-oxo-1,3,8-triaza-spiro[4.5]dec-1-ene-8-sulfonyl]-ethyl}-3,N,N-trimethyl-benzamide]
25 | 73% | Cc1cc(C(=O)N(C)C)ccc1CCS(=O)(=O)N1CCC2(CC1)N=C(c1ccc(OC(F)F)cc1)NC2=O [Compound 118, 4-{2-[2-(4-difluoromethoxy-phenyl)-4-oxo-1,3,8-triaza-spiro[4.5]dec-1-ene-8-sulfonyl]-ethyl}-3,N,N-trimethyl-benzamide]
26 | 60% | COc1cc(C2=NC3(CCN(S(=O)(=O)CCc4ccc(C(=O)N(C)C)cc4C)CC3)C(=O)N2)ccn1 [Compound 119, 4-{2-[2-(2-methoxy-pyridin-4-yl)-4-oxo-1,3,8-triaza-spiro[4.5]dec-1-ene-8-sulfonyl]-ethyl}-3,N,N-trimethyl-benzamide]
27 | 79% | Cc1cc(C(=O)N(C)C)ccc1CCS(=O)(=O)N1CCC2(CC1)N=C(c1ccc(Cl)c(C(F)(F)F)c1)NC2=O [Compound 126, 4-{2-[2-(4-chloro-3-trifluoromethyl-phenyl)-4-oxo-1,3,8-triaza-spiro[4.5]dec-1-ene-8-sulfonyl]-ethyl}-3,N,N-trimethyl-benzamide]
